# From US8053476B2, “Method for treating peripheral neuropathic pain” (UCB Pharma GmbH, priority 2001, dated 2011)
# Experiments:
# female Wistar rats = test: Freund's complete adjuvant arthritis model, paw pressure test (Randall Selitto), vocalisation; type: in vivo, rat
# Procedure: Experiments were performed in female Wistar rats weighing 80-90 g at the beginning of the experiments. Arthritis was induced by intraplantar injection of Freund's complete adjuvant (FCA, 0.1 ml) to one hindpaw. Drugs were given on day 11 after FCA injection in animals which developed systemic secondary arthritic symptoms as assessed by visual inspection. Mechanical hyperalgesia was than acutely applied and measured by means of the paw pressure test (Randall Selitto method) and supraspinal vocalisation as the biological endpoint of the nociceptive reaction. Measurements were taken at 0 min (before drug injection) and 15 min, 30 min, 60 min, and 24 h after drug injection and all data are expressed as percent of maximal possible effect (% MPE).
# 10 groups of 15 rats were used and received the following treatments: […]
# rat [1] = test: Formalin test, rat: prolonged inflammatory pain (weighted pain score); type: in vivo; conditions: i.p. just prior to formalin injection, 5-40 mg/kg
# Procedure: The formalin test is a chemically-induced tonic pain model in which biphasic changes of nociceptive behaviour are assessed and spinal/supraspinal plasticity of nociception is considered as a molecular basis for neuropathic pain particularly during the second (=late) phase of the test, during which most clinically used drugs against neuropathic pain are active.
# The compound was tested for anti-nociceptive properties by use of the weighted behavioural scoring method: Freely moving animals underwent observational assessment of the position of the left hind paw according to a rating score scaled 0-3 before and 10, 20, 30 and 40 min after injection of 0.05 ml of sterile 2.5% formalin under the skin on the dorsal surface of the paw.
# rat [2] = test: Chronic constriction injury (CCI, Bennett-model), thermal hyperalgesia (Hargreaves); type: in vivo; conditions: for Withdrawal latency, Post-operative + SPM 927: ligated hind paw, radiant heat, ±SEM
# Procedure: (§1) The effectiveness of SPM 927 in reducing spontaneous chronic pain, mechanical allodynia, and thermal hyperalgesia was tested using the chronic constriction injury (CCI) model of peripheral neuropathy, one of the best characterised in vivo animal models used to study chronic pain due to peripheral nerve injury. In this model, loose ligatures are placed around the sciatic nerve, which produces axonal swelling and a partial deafferentation manifested as a significant but incomplete loss of axons in the distal portion of the peripheral nerve. One of the prominent behaviours seen following sciatic nerve ligation is the appearance of hind paw guarding, thought to be an indication of an ongoing spontaneous chronic pain. Support for this idea is derived from reports of increased spinal cord neural activity, and increased spontaneous neuronal discharge in spinothalamic tract neurons and in the ventrobasal thalamus in the absence of overt peripheral stimulation. In addition to the appearance of spontaneous pain behaviours, several abnormalities in stimulus evoked pain occur as a result of CCI, including thermal hyperalgesia and mechanical allodynia. The development of these abnormal stimulus-evoked pains has also been reported as occurring in areas outside the territory of the damaged nerve, areas innervated by uninjured nerves.
# Behavioural tests for thermal hyperalgesia, and mechanical allodynia were conducted to evaluate different components of neuropathic pain. Baseline data for each test was collected prior to any experimental procedure; in addition, all animals were tested for the development of chronic pain behaviours 13-25 days after CCI surgery 1 day prior to the day of vehicle (0.04 ml sterile water/10 g body weight) or drug administration and after vehicle or drug administration. The sequence of the pain-related behaviour tests was (1) thermal hyperalgesia, (2) mechanical allodynia in order to minimise the influence of one test on the result of the next. The testing procedures and results are presented separately for each aspect of chronic pain. Either 0 (vehicle, 0.04 ml/10 g body weight), 5, 10, 20 or 40 mg/kg of SPM 927 (n=7-23/group) was administered i.p. 15 minutes before the first behavioural test.
# (1) Thermal hyperalgesia was assessed by means of withdrawal latency in response to radiant heat applied to the subplantar surface of the ligated rat hind paw according to Hargreaves. As compared to the baseline latency (s), a significant decrease in the (postoperative) latency of foot withdrawal in response to the thermal stimulus was interpreted as indicating the presence of thermal hyperalgesia following chronic constriction injury.
# rat [3] = test: Chronic constriction injury (CCI, Bennett-model), mechanical allodynia (Von Frey pressure algometer); type: in vivo; conditions: for Pressure to elicit foot withdrawal, Post-operative + SPM 927: ligated hind paw, ±SEM
# Procedure: as §1
# Behavioural tests for thermal hyperalgesia, and mechanical allodynia were conducted to evaluate different components of neuropathic pain. Baseline data for each test was collected prior to any experimental procedure; in addition, all animals were tested for the development of chronic pain behaviours 13-25 days after CCI surgery 1 day prior to the day of vehicle (0.04 ml sterile water/10 g body weight) or drug administration and after vehicle or drug administration. […]
# Mechanical sensitivity and allodynia of the ligated rat hind paw was quantified by brisk foot withdrawal in response to normally innocuous mechanical stimuli as described previously. […]
# rat [4] = test: Randall-Selitto paw pressure test, carrageenan induced acute inflammation; type: in vivo; conditions: for Mechanical nociceptive threshold pressure, Carrageenan + SPM 927: ±SEM, n=12
# Procedure: Further potential anti-nociceptive efficacy of SPM 927 was assessed in a rat experimental model of acute inflammation using a modified Randall and Selitto procedure. Acute inflammation is induced by injection of s.c. carrageenan (1.0 mg in 0.1 ml saline/paw), an unspecific inflammatory agent, into the plantar surface of one hind paw of the animal. Mechanical sensitivity and nociceptive thresholds were measured using an algesimeter device that exerts a constantly increasing mechanical force (10 mm Hg/sec) on the inflammed hind paw. The mechanical nociceptive threshold is defined as the pressure (mm Hg) at which the rat vocalises or struggles or withdraws its paw. Since its original description, the Randall and Selitto mechanical paw pressure test has become a standard method for testing the efficacy of new compounds for alleviating acute inflammatory pain.
# SPM 927 or vehicle (sterile water, 0.04 […]) was administered i.p. 1 hr and 45 minutes after carrageenan, meaning 15 to 20 minutes before the start of behavioural testing. As compared to the response threshold of vehicle-treated controls, an increase in the pressure required to produce a behavioural response is interpreted as antinociception.
smiles,measurement,setting,value
"COC[C@@H](NC(C)=O)C(=O)NCc1ccccc1 [SPM 927, (R)-2-acetamide-N-benzyl-3-methoxypropionamide]",Anti-inflammatory effect in FCA arthritis,female Wistar rats; 30 mg/kg early (with FCA),no anti-inflammatory effects
same,Anti-nociceptive effect in FCA arthritis,"female Wistar rats; 5-40 mg/kg acute, significant at 30 and 40 mg/kg",dose-dependent anti-nociceptive
same,% MPE,"female Wistar rats; FCA rats, 5 mg/kg acute (day 11), 15 min",−5 % MPE
same,% MPE,"female Wistar rats; FCA rats, 5 mg/kg acute (day 11), 30 min",−5 % MPE
same,% MPE,"female Wistar rats; FCA rats, 5 mg/kg acute (day 11), 60 min",−12 % MPE
same,% MPE,"female Wistar rats; FCA rats, 5 mg/kg acute (day 11), 24 h",−14 % MPE
same,% MPE,"female Wistar rats; FCA rats, 10 mg/kg acute (day 11), 15 min",+7 % MPE
same,% MPE,"female Wistar rats; FCA rats, 10 mg/kg acute (day 11), 30 min",−2 % MPE
same,% MPE,"female Wistar rats; FCA rats, 10 mg/kg acute (day 11), 60 min",0 % MPE
same,% MPE,"female Wistar rats; FCA rats, 10 mg/kg acute (day 11), 24 h",−5 % MPE
same,% MPE,"female Wistar rats; FCA rats, 20 mg/kg acute (day 11), 15 min",+1 % MPE
same,% MPE,"female Wistar rats; FCA rats, 20 mg/kg acute (day 11), 30 min",−20 % MPE
same,% MPE,"female Wistar rats; FCA rats, 20 mg/kg acute (day 11), 60 min",−9 % MPE
same,% MPE,"female Wistar rats; FCA rats, 20 mg/kg acute (day 11), 24 h",−20 % MPE
same,% MPE,"female Wistar rats; FCA rats, 30 mg/kg acute (day 11), 15 min",+58 % MPE
same,% MPE,"female Wistar rats; FCA rats, 30 mg/kg acute (day 11), 30 min",+33 % MPE
same,% MPE,"female Wistar rats; FCA rats, 30 mg/kg acute (day 11), 60 min",+16 % MPE
same,% MPE,"female Wistar rats; FCA rats, 30 mg/kg acute (day 11), 24 h",−8 % MPE
same,% MPE,"female Wistar rats; FCA rats, 30 mg/kg early (with FCA), anti-inflammatory effects group, 15 min",−14 % MPE
same,% MPE,"female Wistar rats; FCA rats, 30 mg/kg early (with FCA), anti-inflammatory effects group, 30 min",−7 % MPE
same,% MPE,"female Wistar rats; FCA rats, 30 mg/kg early (with FCA), anti-inflammatory effects group, 60 min",−3 % MPE
same,% MPE,"female Wistar rats; FCA rats, 30 mg/kg early (with FCA), anti-inflammatory effects group, 24 h",−11 % MPE
same,% MPE,"female Wistar rats; FCA rats, 40 mg/kg acute (day 11), 15 min",+100 % MPE
same,% MPE,"female Wistar rats; FCA rats, 40 mg/kg acute (day 11), 30 min",+100 % MPE
same,% MPE,"female Wistar rats; FCA rats, 40 mg/kg acute (day 11), 60 min",+14 % MPE
same,% MPE,"female Wistar rats; FCA rats, 40 mg/kg acute (day 11), 24 h",−7 % MPE
same,Dose at which anti-nociceptive effects started,"female Wistar rats; FCA rats, most prominent during first 30 min",30 mg/kg
same,Effect on formalin-induced nociceptive behaviour,rat [1],dose dependent reduction of the formalin-induced tonic inflammatory nociceptive behaviour
same,"Withdrawal latency, Post-operative + SPM 927",rat [2]; 5 mg/kg i.p.,9.1 ± 0.97 s
same,"Withdrawal latency, Post-operative + SPM 927",rat [2]; 10 mg/kg i.p.,8.0 ± 0.58 s
same,Dose at which maximum effect on thermal hyperalgesia was seen,rat [2]; i.p.,20 mg/kg
same,Effect on CCI-induced thermal hyperalgesia,"rat [2]; i.p., significant only at 20 and 40 mg/kg",dose dependently reduced chronic constriction injury-induced thermal hyperalgesia
same,"Pressure to elicit foot withdrawal, Post-operative + SPM 927",rat [3]; 20 mg/kg i.p.,39.5 ± 3.62 g/mm^2
same,"Pressure to elicit foot withdrawal, Post-operative + SPM 927",rat [3]; 40 mg/kg i.p.,42.9 ± 5.47 g/mm^2
same,Effect on mechanical allodynia induced by unilateral nerve ligation,"rat [3]; i.p., 5-40 mg/kg",dose dependently reduced the intensity of mechanical allodynia
same,"Mechanical nociceptive threshold pressure, Carrageenan + SPM 927",rat [4]; 20 mg/kg i.p. 1 hr 45 min after carrageenan,164.8 ± 13.5 mm Hg
same,"Mechanical nociceptive threshold pressure, Carrageenan + SPM 927",rat [4]; 40 mg/kg i.p. 1 hr 45 min after carrageenan,232.7 ± 22.0 mm Hg
same,Effect on carrageenan induced mechanical hyperalgesia,rat [4]; 20 and 40 mg/kg i.p.,markedly reduced the mechanical hyperalgesia induced by carrageenan
"CN1CC[C@]23c4c5ccc(O)c4O[C@H]2[C@@H](O)C=C[C@H]3[C@H]1C5 [morphine, reference compound]",Antinociceptive effect of positive control,"female Wistar rats; 10 mg/kg, arthritic and normal animals",clear antinociceptive effects in arthritic and normal animals
same,% MPE,"female Wistar rats; FCA rats (disease condition), 10 mg/kg, 15 min",+100 % MPE
same,% MPE,"female Wistar rats; FCA rats (disease condition), 10 mg/kg, 30 min",+100 % MPE
same,% MPE,"female Wistar rats; FCA rats (disease condition), 10 mg/kg, 60 min",+100 % MPE
same,% MPE,"female Wistar rats; FCA rats (disease condition), 10 mg/kg, 24 h",−7 % MPE
same,% MPE,"female Wistar rats; no FCA (normal condition), 10 mg/kg, 15 min",+100 % MPE
same,% MPE,"female Wistar rats; no FCA (normal condition), 10 mg/kg, 30 min",+100 % MPE
same,% MPE,"female Wistar rats; no FCA (normal condition), 10 mg/kg, 60 min",+100 % MPE
same,% MPE,"female Wistar rats; no FCA (normal condition), 10 mg/kg, 24 h",+2 % MPE
